{"source": "paper PMC7734006", "about": "(Cancer Science, 2020)", "key": {"[1]": {"test_system": "relapsed or refractory ALCL", "settings": "6 of 17 patients; cited from earlier work"}, "[2]": {"test_system": "relapsed or refractory systemic ALCL", "settings": "cited from earlier work"}, "[3]": {"test_system": "relapsed or refractory ALCL", "settings": "36 pediatric patients treated weekly; cited from earlier work"}, "[4]": {"assay": "Plasma alectinib pharmacokinetics", "type": "in vivo, human"}, "[5]": {"settings": "patients who achieved CR with BV"}}}
{"molecule": "C#CCC(Cc1cnc2nc(N)nc(N)c2n1)c1ccc(C(=O)N[C@@H](CCC(=O)O)C(=O)O)cc1", "note": "(stereo partly shown) [pralatrexate]", "values": [{"measurement": "Objective response rate", "setting": "[1]", "value": 35, "unit": "%"}]}
{"molecule": "BV: anti-CD30 Ab drug conjugated to the microtubule-disrupting agent, monomethyl auristatin E", "values": [{"measurement": "CR rate", "setting": "[2]; 33 of 58 patients", "value": 57, "unit": "%"}, {"measurement": "Objective response rate", "setting": "[2]; 50 of 58 patients", "value": 86, "unit": "%"}, {"measurement": "Patients without recurrence with no treatment after a BV treatment regime", "setting": "[2]", "value": "approximately 15%"}, {"measurement": "Peripheral neuropathies, patients", "setting": "[2]", "value": 41, "unit": "%"}, {"measurement": "5-year OS", "setting": "[2]; [5]", "value": 79, "unit": "%"}, {"measurement": "5-year PFS", "setting": "[2]; [5]", "value": 57, "unit": "%"}]}
{"molecule": "CC[C@]1(O)C[C@@H]2CN(CCc3c([nH]c4ccccc34)[C@@](C(=O)OC)(c3cc4c(cc3OC)N(C)[C@H]3[C@@](O)(C(=O)OC)[C@H](OC(C)=O)[C@]5(CC)C=CCN6CC[C@]43[C@@H]65)C2)C1", "note": "[vinblastine]", "values": [{"measurement": "5-year EFS rate", "setting": "[3]", "value": 30, "unit": "%"}, {"measurement": "CR rate", "setting": "[3]", "value": 83, "unit": "%"}]}
{"molecule": "CCc1cc2c(cc1N1CCC(N3CCOCC3)CC1)C(C)(C)c1[nH]c3cc(C#N)ccc3c1C2=O", "note": "[alectinib]", "values": [{"measurement": "Time to steady-state peak concentration (median)", "setting": "[4]; cohort A: younger than 15 years, 300 mg/d", "value": 4, "unit": "h"}, {"measurement": "Time to steady-state peak concentration (median)", "setting": "[4]; cohort B: younger than 15 years, 600 mg/d", "value": 5, "unit": "h"}, {"measurement": "Time to steady-state peak concentration (median)", "setting": "[4]; cohort C: 15 years or older, 600 mg/d", "value": 4, "unit": "h"}, {"measurement": "Peak concentration of alectinib", "setting": "[4]; the patient who died following disease progression after the first course (cohort C)", "value": 16.97, "unit": "mg/mL"}]}
